# Data reported in ChEMBL document CHEMBL1135316, “Parallel solution- and solid-phase synthesis of spirohydantoin derivatives as neurokinin-1 receptor ligands” (Bioorg Med Chem Lett, 2002).
# Biological target: Substance-P receptor (Homo sapiens, UniProt P25103)
# Assay: Affinity for human Tachykinin receptor 1 expressed in CHO cells
# Assay type: cell-based
# Chain of Substance-P receptor (P25103 whole entry): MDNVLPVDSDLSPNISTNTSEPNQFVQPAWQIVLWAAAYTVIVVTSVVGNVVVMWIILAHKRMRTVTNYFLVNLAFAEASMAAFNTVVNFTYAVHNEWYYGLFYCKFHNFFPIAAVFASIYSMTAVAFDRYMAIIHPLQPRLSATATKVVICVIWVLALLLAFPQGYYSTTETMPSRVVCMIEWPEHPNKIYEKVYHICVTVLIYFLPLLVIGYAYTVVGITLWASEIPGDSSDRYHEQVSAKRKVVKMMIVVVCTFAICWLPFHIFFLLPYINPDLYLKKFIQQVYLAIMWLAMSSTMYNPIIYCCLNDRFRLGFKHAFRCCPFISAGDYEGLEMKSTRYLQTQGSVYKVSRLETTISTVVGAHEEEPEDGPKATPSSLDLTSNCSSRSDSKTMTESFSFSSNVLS
row,Compound,Ki
1,Cc1cccc(NC(=O)N2CCC3(CC2)NC(=O)N(Cc2cc(C(F)(F)F)cc(C(F)(F)F)c2)C3=O)c1,45.7 nM
2,CN1C(=O)N(Cc2cc(C(F)(F)F)cc(C(F)(F)F)c2)C2(CCN(C(=O)CN3CCC(Cc4ccccc4)CC3)CC2)C1=O,3720 nM
3,CN1C(=O)N(Cc2cc(C(F)(F)F)cc(C(F)(F)F)c2)C2(CCN(C(=O)c3cccc4ccccc34)CC2)C1=O,457 nM
4,O=C(c1cc(C(F)(F)F)cc(C(F)(F)F)c1)N1CCC2(CC1)NC(=O)N(Cc1cccc(-c3ccccc3)c1)C2=O,138 nM
5,O=C1NC2(CCN(S(=O)(=O)CCc3cccc4ccccc34)CC2)C(=O)N1Cc1cc(C(F)(F)F)cc(C(F)(F)F)c1,74.1 nM
6,Cc1cc(C)c(C(=O)N2CCC3(CC2)NC(=O)N(c2cc(C(F)(F)F)cc(C(F)(F)F)c2)C3=O)c(C)c1,324 nM
7,O=C(c1cc(C(F)(F)F)cc(C(F)(F)F)c1)N1CCC2(CC1)NC(=O)N(CCc1c[nH]c3ccccc13)C2=O,575 nM
8,N#Cc1cccc(CN2CCC3(CC2)NC(=O)N(Cc2cc(C(F)(F)F)cc(C(F)(F)F)c2)C3=O)c1,107 nM

# Continued by falling Ki, values first:
row,Ki,Compound
1,646 nM,CN1C(=O)N(Cc2cc(C(F)(F)F)cc(C(F)(F)F)c2)C2(CCN(C(=O)c3c(Cl)cccc3Cl)CC2)C1=O
2,339 nM,O=C(c1cccc2ccccc12)N1CCC2(CC1)NC(=O)N(c1cc(C(F)(F)F)cc(C(F)(F)F)c1)C2=O
3,245 nM,O=C(c1cc(C(F)(F)F)cc(C(F)(F)F)c1)N1CCC2(CC1)NC(=O)N(Cc1ccc3c(c1)OCO3)C2=O
4,132 nM,CSc1ccc(N2C(=O)NC3(CCN(C(=O)c4cc(C(F)(F)F)cc(C(F)(F)F)c4)CC3)C2=O)cc1
